Assay [1] has as its system HCV genotype 1a (H77 strain) replicon in HUH-7 cells. Nature of the assay: HCV replicon luciferase reporter assay, genotype 1a. In kind it is cell-based. The note with it: Hepatitis C virus, Huh-7, 72 h, HCV genotype 1a replicon luciferase assay, 3 days incubation. The procedure, abridged: (§1)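 Replicon inhibition for both genotypes was measured as Renilla luciferase signal (EnduRen, 7.5 μM final, 2 h) after 3-day, 37° C exposure of replicon-bearing HUH-7 cells in 4% FCS DMEM, 0.5% DMSO. The 1b construct carries S1179I; the 1a H77 construct carries P1496L and S2204I. Twenty-point, 3-fold dilutions were fitted four-parametrically for EC50, and CC50 was taken from multiplexed Cell Titer-Blue.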

In assay [2] the test system is HCV genotype 1b (Con1) replicon in HUH-7 cells. Nature of the assay: HCV replicon luciferase reporter assay, genotype 1b. In kind it is cell-based. The note with it: Hepatitis C virus, Huh-7, 72 h, HCV genotype 1b replicon luciferase assay, 3 days incubation. The procedure, abridged: as §1
In general terms: Replicon systems follow genome replication, usually without infectious particles.

Where [3] appears, read: range class, read-out: LE_1a (EC50, range).
Where [4] appears, read: range class, read-out: LE_1b (EC50, range).

Read-outs that look alike come from different tables or passages of the source. A value given as a limit tells only on which side of the number the result lay.

Broadly, the EC50 is the concentration giving half of the maximal effect.

Turning to `COc1cc(F)cc2c(O[C@@H]3C[C@H]4C(=O)N[C@]5(C(=O)NS(=O)(=O)C6CC6)C[C@H]5/C=C\CC[C@@H](C)C[C@@H](C)[C@H](NC(=O)OC(C)(C)C)C(=O)N4C3)nccc12` [Compound 3164, tert-butyl ((2R,6S,7R,9R,13aS,14aR,16aS,Z)-14a-((cyclopropylsulfonyl)carbamoyl)-2-((7-fluoro-5-methoxyisoquinolin-1-yl)oxy)-7,9-dimethyl-5,16-dioxo-1,2,3,5,6,7,8,9,10,11,13a,14,14a,15,16,16a-hexadecahydrocyclopropa[e]pyrrolo[1,2-a][1,4]diazacyclopentadecin-6-yl)carbamate], the EC50 in assay [1] (setting [3]) and in assay [2] (setting [4]) was less than 5.46 nM in each case.

For the compound `COc1cc(F)cc2c(O[C@@H]3C[C@H]4C(=O)N[C@]5(C(=O)NS(=O)(=O)C6CC6)C[C@H]5/C=C\CC[C@H](C)C[C@@H](C)[C@H](NC(=O)OC(C)(C)C(F)(F)F)C(=O)N4C3)nccc12` [Compound 3165, 1,1,1-trifluoro-2-methylpropan-2-yl((2R,6S,7R,9S,13aS,14aR,16aS,Z)-14a-((cyclopropylsulfonyl)carbamoyl)-2-((7-fluoro-5-methoxyisoquinolin-1-yl)oxy)-7,9-dimethyl-5,16-dioxo-1,2,3,5,6,7,8,9,10,11,13a,14,14a,15,16,16a-hexadecahydrocyclopropa[e]pyrrolo[1,2-a][1,4]diazacyclopentadecin-6-yl)carbamate], the EC50 in assay [1] (setting [3]) and in assay [2] (setting [4]) was 4.82 to 103 nM throughout.

For the compound `COc1cc(F)cc2c(O[C@@H]3C[C@H]4C(=O)N[C@]5(C(=O)NS(=O)(=O)C6CC6)C[C@H]5/C=C\CC[C@@H](C)C[C@@H](C)[C@H](NC(=O)OC(C)(C)C(F)(F)F)C(=O)N4C3)nccc12` [Compound 3166, 1,1,1-trifluoro-2-methylpropan-2-yl((2R,6S,7R,9R,13aS,14aR,16aS,Z)-14a-((cyclopropylsulfonyl)carbamoyl)-2-((7-fluoro-5-methoxyisoquinolin-1-yl)oxy)-7,9-dimethyl-5,16-dioxo-1,2,3,5,6,7,8,9,10,11,13a,14,14a,15,16,16a-hexadecahydrocyclopropa[e]pyrrolo[1,2-a][1,4]diazacyclopentadecin-6-yl)carbamate], the EC50 in assay [1] (setting [3]) and in assay [2] (setting [4]) was less than 5.46 nM throughout.

With `COc1cc(F)cc2c(O[C@@H]3C[C@H]4C(=O)N[C@]5(C(=O)NS(=O)(=O)C6CC6)C[C@H]5/C=C\CC[C@H](C)C[C@@H](C)[C@H](NC(=O)O[C@@H]5C[C@@H]6C[C@@H]6C5)C(=O)N4C3)nccc12` [Compound 3167, (1R,3r,5S)-bicyclo[3.1.0]hexan-3-yl((2R,6S,7R,9S,13aS,14aR,16aS,Z)-14a-((cyclopropylsulfonyl)carbamoyl)-2-((7-fluoro-5-methoxyisoquinolin-1-yl)oxy)-7,9-dimethyl-5,16-dioxo-1,2,3,5,6,7,8,9,10,11,13a,14,14a,15,16,16a-hexadecahydrocyclopropa[e]pyrrolo[1,2-a][1,4]diazacyclopentadecin-6-yl)carbamate], the EC50 was 4.82 to 103 nM in assay [1] (setting [3]) and less than 5.46 nM in assay [2] (setting [4]).

For `COc1cc(F)cc2c(O[C@@H]3C[C@H]4C(=O)N[C@]5(C(=O)NS(=O)(=O)C6CC6)C[C@H]5/C=C\CC[C@@H](C)C[C@@H](C)[C@H](NC(=O)O[C@@H]5C[C@@H]6C[C@@H]6C5)C(=O)N4C3)nccc12` [Compound 3168, (1R,3r,5S)-bicyclo[3.1.0]hexan-3-yl((2R,6S,7R,9R,13aS,14aR,16aS,Z)-14a-((cyclopropylsulfonyl)carbamoyl)-2-((7-fluoro-5-methoxyisoquinolin-1-yl)oxy)-7,9-dimethyl-5,16-dioxo-1,2,3,5,6,7,8,9,10,11,13a,14,14a,15,16,16a-hexadecahydrocyclopropa[e]pyrrolo[1,2-a][1,4]diazacyclopentadecin-6-yl)carbamate], the half-maximal effective concentration (EC50) in assay [1] (setting [3]) and in assay [2] (setting [4]) was less than 5.46 nM each time.

Take `COc1cc(F)cc2c(O[C@@H]3C[C@H]4C(=O)N[C@]5(C(=O)NS(=O)(=O)C6CC6)C[C@H]5/C=C\CC[C@H](C)C[C@@H](C)[C@H](NC(=O)O[C@H](C)C(F)(F)F)C(=O)N4C3)nccc12` [Compound 3169, (R)-1,1,1-trifluoropropan-2-yl ((2R,6S,7R,9S,13aS,14aR,16aS,Z)-14a-((cyclopropylsulfonyl)carbamoyl)-2-((7-fluoro-5-methoxyisoquinolin-1-yl)oxy)-7,9-dimethyl-5,16-dioxo-1,2,3,5,6,7,8,9,10,11,13a,14,14a,15,16,16a-hexadecahydrocyclopropa[e]pyrrolo[1,2-a][1,4]diazacyclopentadecin-6-yl)carbamate]: the EC50 in assay [1] (setting [3]) is 4.82 to 103 nM; in assay [2] (setting [4]) it was less than 5.46 nM.

Turning to `COc1cc(F)cc2c(O[C@@H]3C[C@H]4C(=O)N[C@]5(C(=O)NS(=O)(=O)C6CC6)C[C@H]5/C=C\CC[C@@H](C)C[C@@H](C)[C@H](NC(=O)O[C@H](C)C(F)(F)F)C(=O)N4C3)nccc12` [Compound 3170, (R)-1,1,1-trifluoropropan-2-yl ((2R,6S,7R,9R,13aS,14aR,16aS,Z)-14a-((cyclopropylsulfonyl)carbamoyl)-2-((7-fluoro-5-methoxyisoquinolin-1-yl)oxy)-7,9-dimethyl-5,16-dioxo-1,2,3,5,6,7,8,9,10,11,13a,14,14a,15,16,16a-hexadecahydrocyclopropa[e]pyrrolo[1,2-a][1,4]diazacyclopentadecin-6-yl)carbamate], the EC50 in assay [1] (setting [3]) and in assay [2] (setting [4]) was less than 5.46 nM throughout.

Consider `COc1cc(F)cc2c(O[C@@H]3C[C@H]4C(=O)N[C@]5(C(=O)NS(=O)(=O)C6CC6)C[C@H]5/C=C\CC[C@H](C)C[C@@H](C)[C@H](NC(=O)OCC5(C)CC5)C(=O)N4C3)nccc12` [Compound 3171, (1-methylcyclopropyl)methyl ((2R,6S,7R,9S,13aS,14aR,16aS,Z)-14a-((cyclopropylsulfonyl)carbamoyl)-2-((7-fluoro-5-methoxyisoquinolin-1-yl)oxy)-7,9-dimethyl-5,16-dioxo-1,2,3,5,6,7,8,9,10,11,13a,14,14a,15,16,16a-hexadecahydrocyclopropa[e]pyrrolo[1,2-a][1,4]diazacyclopentadecin-6-yl)carbamate], for which the EC50 was 4.82 to 103 nM in assay [1] (setting [3]) and less than 5.46 nM in assay [2] (setting [4]).

In the case of `COc1cc(F)cc2c(O[C@@H]3C[C@H]4C(=O)N[C@]5(C(=O)NS(=O)(=O)C6CC6)C[C@H]5/C=C\CC[C@@H](C)C[C@@H](C)[C@H](NC(=O)OCC5(C)CC5)C(=O)N4C3)nccc12` [Compound 3172, (1-methylcyclopropyl)methyl ((2R,6S,7R,9R,13aS,14aR,16aS,Z)-14a-((cyclopropylsulfonyl)carbamoyl)-2-((7-fluoro-5-methoxyisoquinolin-1-yl)oxy)-7,9-dimethyl-5,16-dioxo-1,2,3,5,6,7,8,9,10,11,13a,14,14a,15,16,16a-hexadecahydrocyclopropa[e]pyrrolo[1,2-a][1,4]diazacyclopentadecin-6-yl)carbamate], the 50% effective concentration (EC50) in assay [1] (setting [3]) was less than 5.46 nM; in assay [1] (read-out: LE_1a (EC50)), 1.04 nM; in assay [2] (setting [4]), less than 5.46 nM; in assay [2] (read-out: LE_1b (EC50)) it was 1.18 nM.

The values are drawn from patent US9499550B2 (BRISTOL-MYERS SQUIBB COMPANY, priority 2012, dated 2016).
